Measured values reported in US10584116B2, “Heterocyclic sulfonamide derivative and medicine containing same” (EA Pharma Co., Ltd., priority 2016, dated 2020).

What follows are compounds tested against human TRPA1 (Homo sapiens (Human), UniProt O75762) (assay: Measurement of TRPA1 antagonist activity (intracellular calcium increase induced by allylisothiocyanate in 293T cells transfected with human TRPA1)). Details: 293T cells expressing human TRPA1, allylisothiocyanate stimulation, FLIPR Calcium4 fluorescence; read-out: hTRPA1 IC50.
Chain of human TRPA1 (O75762 whole entry): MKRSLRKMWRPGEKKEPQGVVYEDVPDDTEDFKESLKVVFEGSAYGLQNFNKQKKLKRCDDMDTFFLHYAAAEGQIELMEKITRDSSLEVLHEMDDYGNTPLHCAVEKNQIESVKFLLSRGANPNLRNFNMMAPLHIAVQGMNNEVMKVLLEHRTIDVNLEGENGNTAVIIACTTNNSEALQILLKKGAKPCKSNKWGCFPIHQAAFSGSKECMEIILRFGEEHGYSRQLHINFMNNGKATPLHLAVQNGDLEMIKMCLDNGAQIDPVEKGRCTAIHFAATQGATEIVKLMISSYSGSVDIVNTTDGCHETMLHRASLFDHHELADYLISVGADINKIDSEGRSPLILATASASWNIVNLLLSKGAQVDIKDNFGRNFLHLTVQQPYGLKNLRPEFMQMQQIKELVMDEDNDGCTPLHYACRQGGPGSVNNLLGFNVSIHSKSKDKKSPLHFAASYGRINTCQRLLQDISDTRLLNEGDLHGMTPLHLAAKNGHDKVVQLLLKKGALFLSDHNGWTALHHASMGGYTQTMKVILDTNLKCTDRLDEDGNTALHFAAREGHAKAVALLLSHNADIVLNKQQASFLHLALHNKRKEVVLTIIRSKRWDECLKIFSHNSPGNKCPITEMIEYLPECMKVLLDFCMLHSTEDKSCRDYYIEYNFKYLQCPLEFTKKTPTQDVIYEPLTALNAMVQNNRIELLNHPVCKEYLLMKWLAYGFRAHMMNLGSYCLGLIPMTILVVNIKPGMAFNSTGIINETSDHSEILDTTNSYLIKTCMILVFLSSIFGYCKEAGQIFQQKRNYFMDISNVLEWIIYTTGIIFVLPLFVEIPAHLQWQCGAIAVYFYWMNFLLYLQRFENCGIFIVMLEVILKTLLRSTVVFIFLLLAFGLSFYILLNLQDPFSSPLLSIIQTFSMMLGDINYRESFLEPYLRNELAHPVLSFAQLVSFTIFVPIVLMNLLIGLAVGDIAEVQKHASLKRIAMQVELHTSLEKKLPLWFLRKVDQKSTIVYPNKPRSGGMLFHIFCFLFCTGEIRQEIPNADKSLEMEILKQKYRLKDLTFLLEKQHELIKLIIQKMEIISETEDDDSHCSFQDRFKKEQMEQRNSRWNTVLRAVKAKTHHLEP
Type: cell-based
Description: Measurement of TRPA1 Antagonist Activity
Human TRPA1 Expression Plasmid
Using cDNA encoding human TRPA1 (GenBank accession No. NM_007332) (manufactured by Kazusa DNA Research Institute, item No. FHC07217) as a template, primer 1 (SEQ ID NO: 1) and primer 2 (SEQ ID NO: 2), PCR by PfuUltra High-Fidelity DNA Polymerase (Stratagene) was performed, and full-length human TRPA1 gene was amplified.
A recognition site (underlined) of restriction enzyme HindIII was added to the 5′ end of human TRPA1 gene, and XbaI site (underlined) was added to the 3′ end of human TRPA1 gene, and GTT of the template sequence was changed to termination codon TAG (bold). The obtained double stranded DNA was enzyme-digested with HindIII and XbaI, and introduced into a multicloning site of expression plasmid pcDNA3.1/zeo(+) (manufactured by Invitrogen) to give a human TRPA1 expression plasmid.
Human embryonic kidney-derived 293T cells were cultured in Dulbecco's Modified Eagle Medium containing 10% fetal bovine serum, 10 unit penicillin, and 10 μg streptomycin. One day before assay, 3×10^6 of 293T cells were plated on a petri dish having a diameter of 10 cm, and cultured in a CO2 incubator for 24 hr. OPTI-MEM I Reduced Serum Media (Invitrogen) (600 μL), Mirus TransIT-293 (Mirus Bio) (18 μL), and human TRPA1 expression plasmid (6 μg) were mixed, the total amount of the mixture was added to the cells on the petri dish to allow for gene transfer. The cells were recovered about for 8 hr later, plated on a poly-D-lysine coated 384 well black/clear bottom plate at 12,000 cells/well, and cultured overnight.
Measurement of Intracellular Calcium Increase
The medium was removed from the 384 well plate, calcium indicator (Molecular Device, trade name: FLIPR Calcium4 Assay Kit) dissolved in HBSS (Thermo Fisher Scientific) (pH 7.2) containing 20 mM HEPES was added (38 μL/well), and the cells were stained in a CO2 incubator for 1 hr. The 384 well plate was stood at room temperature for not less than 15 min, set on FDSS7000 (Hamamatsu Photonics K.K.), and a test substance solution was added at 10 μL/well. After 10 min, allylisothiocyanate solution (12 μL/well) was added, the relative fluorescence intensity was measured for 5 min after addition of the allylisothiocyanate solution.
Test Substance Preparation
Preparation of Test Substance Solution and Allylisothiocyanate Solution
A test substance solution was prepared to have a composition of HBSS (Thermo Fisher Scientific) (pH 7.2) containing 0.48% dimethyl sulfoxide, a test substance at 4.8-fold concentration of the evaluation concentration, 0.1% bovine serum albumin and 20 mM HEPES. An allylisothiocyanate solution was prepared to have a composition of HBSS (Thermo Fisher Scientific) (pH 7.2) containing 0.1% dimethyl sulfoxide, 100 μM allylisothiocyanate, 0.1% bovine serum albumin and 20 mM HEPES.
Calculation of Antagonist Activity
The activity rate of a test substance at each concentration was calculated, wherein the relative fluorescence intensity change of a well free of a test substance and containing allylisothiocyanate is 100% activity rate, and the relative fluorescence intensity change of a well free of a test substance and allylisothiocyanate is 0% activity rate. The inhibitory rate of a test substance at each concentration was calculated by subtracting the activity rate of the test substance from 100% activity rate, and the concentration of a test substance showing 50% inhibitory rate was calculated as IC50 from the sigmoid approximate curve by XLfit (idbs).
`CC(C)n1cc(CNC(=O)[C@@H]2CCCN2S(=O)(=O)c2cc3cnccc3o2)cc(-c2ccc(C(F)(F)F)cc2)c1=O` [Example 46, (2S)-1-fro[3,2-c]pyridin-2-ylsulfonyl-N-[[1-isopropyl-6-oxo-5-[4-(trifluoromethyl)phenyl]-3-pyridyl]methyl]pyrrolidine-2-carboxamide] gave an IC50 of 98 nM.
`CC(C)n1c(=O)c(CNC(=O)C2(NS(=O)(=O)c3cc4cc(F)ccc4o3)CC2)cn(-c2ccc(C(F)(F)F)cc2)c1=O` [Example 26] was tested, and the IC50 was 250 nM.
In the case of `CC(C)n1c(=O)c(CNC(=O)[C@@H]2CCCN2S(=O)(=O)c2cc3cc(F)ccc3o2)cn(-c2ccc(F)cc2)c1=O` [Example 39], the IC50 is reported as 100 nM.
With `CC(C)n1c(=O)c(CNC(=O)[C@@H]2CCCN2S(=O)(=O)c2cc3cnccc3o2)cn(-c2ccc(C(F)(F)F)cc2)c1=O` [Example 23, (2S)-1-fro[3,2-c]pyridin-2-ylsulfonyl-N-[[3-isopropyl-2,4-dioxo-1-[4-(trifluoromethyl)phenyl]-pyrimidin-5-yl]methyl]pyrrolidine-2-carboxamide] the IC50 was 20 nM.
In the case of `CC(C)n1c(=O)c(CNC(=O)[C@@H]2CCCN2S(=O)(=O)c2cc3ccccc3o2)cn(-c2ccc(C(F)(F)F)nc2)c1=O` [Example 29, (2S)-1-(benzofuran-2-ylsulfonyl)-N-[[3-isopropyl-2,4-dioxo-1-[6-(trifluoromethyl)-3-pyridyl]pyrimidin-5-yl]methyl]pyrrolidine-2-carboxamide], the IC50 is reported as 30 nM.
`CC(C)n1cc(-c2ccc(C(F)(F)F)cn2)cc(CNC(=O)[C@@H]2CCCN2S(=O)(=O)c2cc3cc(F)ccc3o2)c1=O` [Example 43, (2S)-1-(5-fluorobenzofuran-2-yl)sulfonyl-N-[[1-isopropyl-2-oxo-5-[5-(trifluoromethyl)-2-pyridyl]-3-pyridyl]methyl]pyrrolidine-2-carboxamide] gave an IC50 of 23 nM.
Compound `CC(C)n1cc(-c2ccc(C(F)(F)F)cn2)cc(CNC(=O)[C@@H]2CCCN2S(=O)(=O)c2cc3ccccc3o2)c1=O` [Example 42, (2S)-1-(benzofuran-2-ylsulfonyl)-N-[[1-isopropyl-2-oxo-5-[5-(trifluoromethyl)-2-pyridyl]-3-pyridyl]methyl]pyrrolidine-2-carboxamide] has an IC50 of 79 nM.
`CC(C)n1cc(CNC(=O)[C@@H]2CCCN2S(=O)(=O)c2cc3ccccc3o2)cc(-c2ccc(C(F)(F)F)cn2)c1=O` [Example 50, (2S)-1-(benzofuran-2-ylsulfonyl)-N-[[1-isopropyl-6-oxo-5-[5-(trifluoromethyl)-2-pyridyl]-3-pyridyl]methyl]pyrrolidine-2-carboxamide] gave an IC50 of 110 nM.
`CC(C)n1c(=O)c(CNC(=O)[C@@H]2CCCN2S(=O)(=O)c2cc3cnccc3o2)cn(-c2ccc(C(F)(F)F)nc2)c1=O` [Example 32, (2S)-1-fro[3,2-c]pyridin-2-ylsulfonyl-N-[[3-isopropyl-2,4-dioxo-1-[6-(trifluoromethyl)-3-pyridyl]pyrimidin-5-yl]methyl]pyrrolidine-2-carboxamide] was tested, and the IC50 was 570 nM.
`CC(C)n1c(=O)c(CNC(=O)[C@@H]2[C@@H](O)CCN2S(=O)(=O)c2cc3ccccc3o2)cn(-c2ccc(C(F)(F)F)cc2)c1=O` [Example 7, (2S,3S)-1-(benzofuran-2-ylsulfonyl)-3-hydroxy-N-[[3-isopropyl-2,4-dioxo-1-[4-(trifluoromethyl)phenyl]-pyrimidin-5-yl]methyl]pyrrolidine-2-carboxamide] was tested, and the IC50 was 220 nM.
`CC(C)n1c(=O)c(CNC(=O)[C@@H]2[C@@H](O)CCN2S(=O)(=O)c2cc3cc(F)ccc3o2)cn(-c2ccc(C(F)(F)F)nc2)c1=O` [Example 31, (2S,3S)-1-(5-fluorobenzofuran-2-yl)sulfonyl-3-hydroxy-N-[[3-isopropyl-2,4-dioxo-1-[6-(trifluoromethyl)-3-pyridyl]pyrimidin-5-yl]methyl]pyrrolidine-2-carboxamide] was tested, and the IC50 was 380 nM.
With `CC(C)n1c(=O)c(CNC(=O)[C@@H]2CCCN2S(=O)(=O)c2cc3cc(F)ccc3o2)cn(-c2ccc(C(F)(F)F)cc2)c1=O` [Example 3, (2S)-1-(5-fluorobenzofuran-2-yl)sulfonyl-N-[[3-isopropyl-2,4-dioxo-1-[4-(trifluoromethyl)phenyl]-pyrimidin-5-yl]methyl]pyrrolidine-2-carboxamide] the IC50 was 7.3 nM.
In the case of `CCn1c(=O)c(CNC(=O)[C@@H]2CCCN2S(=O)(=O)c2cc3cc(F)ccc3o2)cn(-c2ccc(C(F)(F)F)cc2)c1=O` [Example 4, (2S)-1-(5-fluorobenzofuran-2-yl)sulfonyl-N-[[3-ethyl-2,4-dioxo-1-[4-(trifluoromethyl)phenyl]pyrimidin-5-yl]methyl]pyrrolidine-2-carboxamide], the IC50 is reported as 11 nM.
Compound `CC(C)n1c(=O)c(CNC(=O)[C@@H]2[C@@H](O)CCN2S(=O)(=O)c2cc3cc(F)ccc3o2)cn(-c2ccc(C(F)(F)F)cc2)c1=O` [Example 8, (2S,3S)-1-(5-fluorobenzofuran-2-yl)sulfonyl-3-hydroxy-N-[[3-isopropyl-2,4-dioxo-1-[4-(trifluoromethyl)phenyl]pyrimidin-5-yl]methyl]pyrrolidine-2-carboxamide] has an IC50 of 64 nM.
For `O=C(NCc1cn(-c2ccc(C(F)(F)F)cc2)c(=O)n(C2CCOCC2)c1=O)[C@@H]1CCCN1S(=O)(=O)c1cc2ccccc2o1` [Example 9, (2S)-1-(benzofuran-2-ylsulfonyl)-N-[[2,4-dioxo-3-tetrahydropyran-4-yl-1-[4-(trifluoromethyl)phenyl]-pyrimidin-5-yl]methyl]pyrrolidine-2-carboxamide], the IC50 was 140 nM.
Compound `CC(C)n1c(=O)c(CNC(=O)[C@@H]2CCCN2S(=O)(=O)c2cc3ccccc3o2)cn(-c2ccc(F)cc2)c1=O` [Example 38, (2S)-1-(benzofuran-2-ylsulfonyl)-N-[[1-(4-fluorophenyl)-3-isopropyl-2,4-dioxo-pyrimidin-5-yl]methyl]pyrrolidine-2-carboxamide] has an IC50 of 240 nM.
Work on `CC(C)n1c(=O)c(CNC(=O)[C@@H]2CCCN2S(=O)(=O)c2cc3ccccc3s2)cn(-c2ccc(C(F)(F)F)cc2)c1=O` [Example 19, (2S)-1-(benzothiophen-2-ylsulfonyl)-N-[[3-isopropyl-2,4-dioxo-1-[4-(trifluoromethyl)phenyl]-pyrimidin-5-yl]methyl]pyrrolidine-2-carboxamide] yielded an IC50 of 56 nM.
`Cc1ccc2oc(S(=O)(=O)N3CCC[C@H]3C(=O)NCc3cn(-c4ccc(C(F)(F)F)cc4)c(=O)n(C(C)C)c3=O)cc2c1` [Example 25, (2S)-N-[[3-isopropyl-2,4-dioxo-1-[4-(trifluoromethyl)phenyl]pyrimidin-5-yl]methyl]-1-(5-methylbenzofuran-2-yl)sulfonyl-pyrrolidine-2-carboxamide] gave an IC50 of 420 nM.
In the case of `CC(C)n1cc(CNC(=O)[C@@H]2CCCN2S(=O)(=O)c2cc3c(F)cccc3o2)cc(-c2ccc(C(F)(F)F)cc2)c1=O` [Example 45, (2S)-1-(4-fluorobenzofuran-2-yl)sulfonyl-N-[[1-isopropyl-6-oxo-5-[4-(trifluoromethyl)phenyl]-3-pyridyl]methyl]pyrrolidine-2-carboxamide], the IC50 is reported as 86 nM.
In the case of `CC(C)n1c(=O)c(CNC(=O)[C@@H]2CCCN2S(=O)(=O)c2cc3cc(F)ccc3o2)cn(-c2ccc(Cl)cc2)c1=O` [Example 41, (2S)-N-[[1-(4-chlorophenyl)-3-isopropyl-2,4-dioxo-pyrimidin-5-yl]methyl]-1-(5-fluorobenzofuran-2-yl)sulfonyl-pyrrolidine-2-carboxamide], the IC50 is reported as 24 nM.
For `O=C(NCc1ccc(=O)n(-c2ccc(C(F)(F)F)cc2)c1)[C@@H]1CCCN1S(=O)(=O)c1cc2cc(F)ccc2o1` [Example 22, (2S)-1-(5-fluorobenzofuran-2-yl)sulfonyl-N-[[6-oxo-1-[4-(trifluoromethyl)phenyl]-3-pyridyl]methyl]pyrrolidine-2-carboxamide], the IC50 was 60 nM.
